Earlier results, collected in patent US9597377B2, “Stable formulations of purified proteins” (MOUNT SINAI SCHOOL OF MEDICINE OF NEW YORK UNIVERSITY, priority 2003, dated 2017).
Positions count from the first letter of the chain named.

How the values were obtained:
[1] = biological target: T1, wild-type α-Gal A in COS-7 cells (Homo sapiens, UniProt P06280); conditions: COS-7 cells transfected with vector coding wild-type α-Gal A; cited from earlier work
T1 construct: expressed in transfected cells; host or cells: COS-7 cells
T1 sequence (P06280 32-429): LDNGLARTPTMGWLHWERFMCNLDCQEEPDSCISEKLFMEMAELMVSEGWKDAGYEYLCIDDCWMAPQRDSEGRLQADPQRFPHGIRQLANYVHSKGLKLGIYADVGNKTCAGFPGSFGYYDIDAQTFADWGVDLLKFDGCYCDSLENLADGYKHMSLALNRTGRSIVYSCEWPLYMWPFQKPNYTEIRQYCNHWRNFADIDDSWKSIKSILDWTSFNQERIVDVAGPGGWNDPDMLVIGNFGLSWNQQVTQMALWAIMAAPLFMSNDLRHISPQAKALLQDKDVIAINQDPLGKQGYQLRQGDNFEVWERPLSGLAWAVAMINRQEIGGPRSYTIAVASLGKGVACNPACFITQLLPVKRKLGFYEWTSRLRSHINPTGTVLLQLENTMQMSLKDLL

[2] = test system: lymphoblasts established from Fabry patients with R301Q or Q279E mutations; conditions: cited from earlier work
mutant α-Gal A (R301Q) = biological target: T2, mutant α-Gal A (R301Q) (Homo sapiens, UniProt P06280, R301Q); conditions: neutral pH; cited from earlier work
T2 sequence (P06280 32-429 R301Q): T1 sequence (P06280 32-429) with R270Q

mutant (R301Q) α-Gal A = biological target: T3, mutant (R301Q) α-Gal A (Homo sapiens, UniProt P06280, R301Q); conditions: oral administration, transgenic mice overexpressing mutant (R301Q) α-Gal A; cited from earlier work
T3 construct: host or cells: transgenic mice overexpressing the mutant enzyme; activity measured in major organs
T3 sequence (P06280 32-429 R301Q): T1 sequence (P06280 32-429) with R270Q

OC[C@H]1NC[C@H](O)[C@@H](O)[C@H]1O [DGJ, 1-deoxygalactonojirimycin]
amount and activity of wild-type α-Gal A [1]: increase the amount and activity
mutant enzyme activity in lymphoblasts [2]: enhanced the mutant enzyme activity
in vitro stability of mutant α-Gal A (R301Q) (mutant α-Gal A (R301Q)): effectively increased in vitro stability
enzyme activity in major organs (mutant (R301Q) α-Gal A): substantially elevated the enzyme activity
